Laboratory results from publication PMC7023430, “4-Aminobenzoic Acid Derivatives: Converting Folate Precursor to Antimicrobial and Cytotoxic Agents” (Biomolecules, 2019).
Values after ≈ are worked out from the molar mass of the structure shown. Read-outs that look alike come from different tables or passages of the source.

Legend:
[1] = test system: M. kansasii 6509/96 (clinical isolate); experiment: Antimycobacterial micromethod in Šula's medium, M. kansasii 6509/96; type: cell-based; settings: Mycobacterium kansasii
[2] = test system: ESBL-positive Klebsiella pneumoniae J 14368/08
[3] = test system: Candida albicans ATCC 44859; experiment: Antifungal microdilution broth method, C. albicans; type: cell-based
In short: (§1)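 MIC by visual endpoint reading after twofold serial dilution of DMSO-dissolved compounds in RPMI-1640 (L-glutamine, 2% glucose, pH 7.0 with MOPS). Method follows EUCAST instructions, slightly modified; duplicates required agreement within one dilution step.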

[4] = test system: methicillin-resistant Staphylococcus aureus ATCC 43300, CCM 4750 (MRSA); experiment: Antibacterial microdilution broth method, MRSA; type: cell-based; settings: Staphylococcus aureus
[5] = test system: Pseudomonas aeruginosa ATCC 27853, CCM 3955; experiment: Antibacterial microdilution broth method, P. aeruginosa; type: cell-based; settings: Pseudomonas aeruginosa, P. aeruginosa
[6] = test system: Trichophyton interdigitale 445; experiment: Antifungal microdilution broth method, T. interdigitale; type: cell-based
In short: as §1

[7] = test system: Staphylococcus epidermidis H 6966/08; experiment: Antibacterial microdilution broth method, S. epidermidis; type: cell-based; settings: Staphylococcus epidermidis, H6966/08
Candida glabrata 20/I = experiment: Antifungal microdilution broth method, C. glabrata; type: cell-based; settings: Nakaseomyces glabratus
In short: as §1

[8] = test system: Mycobacterium avium 330/88; experiment: Antimycobacterial micromethod in Šula's medium, M. avium; type: cell-based
[9] = test system: Staphylococcus aureus ATCC 29213, CCM 4223; experiment: Antibacterial microdilution broth method, S. aureus; type: cell-based
[10] = test system: Enterococcus faecalis ATCC 29212, CCM 4224; experiment: Antibacterial microdilution broth method, E. faecalis; type: cell-based; settings: Enterococcus faecalis
[11] = test system: Lichtheimia corymbifera 272; experiment: Antifungal microdilution broth method, L. corymbifera; type: cell-based
In short: as §1

[12] = test system: Mycobacterium kansasii 235/80; experiment: Antimycobacterial micromethod in Šula's medium, M. kansasii 235/80; type: cell-based
[13] = test system: Aspergillus fumigatus 231; experiment: Antifungal microdilution broth method, A. fumigatus; type: cell-based
In short: as §1

[14] = test system: Escherichia coli ATCC 25922, CCM 3954; experiment: Antibacterial microdilution broth method, E. coli; type: cell-based; settings: Escherichia coli
HepG2 cells = experiment: Cytotoxicity, CellTiter 96 assay; type: cell-based, human; settings: Homo sapiens, HepG2, 24 h, 24 h incubation
In short: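 HepG2 cells (10,000/well) exposed 24 h at 37 °C, 5% CO2 to compounds in DMSO (≤1% v/v final), triplicates. Viability by tetrazolium-to-formazan reduction (CellTiter 96 AQueous One), absorbance 490 nm after 2 h. IC50 from nonlinear regression versus untreated controls; 10% DMSO defined 0% viability.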

[15] = 168 h, 7 days incubation at 37 °C, read-out: MIC M. kansasii 6509/96 7 d
[16] = 336 h, 14 days incubation at 37 °C, read-out: MIC M. kansasii 6509/96 14 d
[17] = 504 h, 21 days incubation at 37 °C, read-out: MIC M. kansasii 6509/96 21 d
[18] = ATCC44859, 24 h, read-out: MIC CA 24 h
[19] = ATCC44859, 48 h, read-out: MIC CA 48 h
[20] = 24 h incubation, read-out: MIC MRSA 24 h
[21] = 48 h incubation, read-out: MIC MRSA 48 h
[22] = 24 h incubation, read-out: MIC PA 24 h
[23] = 48 h incubation, read-out: MIC PA 48 h
[24] = S. epidermidis, 24 h incubation, read-out: MIC SE 24 h
[25] = S. epidermidis, 48 h incubation, read-out: MIC SE 48 h
[26] = 330/88, 336 h, 14 days incubation at 37 °C, read-out: MIC M. avium 330/88 14 d
[27] = 330/88, 504 h, 21 days incubation at 37 °C, read-out: MIC M. avium 330/88 21 d
[28] = 24 h incubation, read-out: MIC SA 24 h
[29] = 48 h incubation, read-out: MIC SA 48 h
[30] = 24 h incubation, read-out: MIC EF 24 h
[31] = 48 h incubation, read-out: MIC EF 48 h
[32] = 235/80, 168 h, 7 days incubation at 37 °C, read-out: MIC M. kansasii 235/80 7 d
[33] = 235/80, 336 h, 14 days incubation at 37 °C, read-out: MIC M. kansasii 235/80 14 d
[34] = 235/80, 504 h, 21 days incubation at 37 °C, read-out: MIC M. kansasii 235/80 21 d
[35] = 24 h incubation, read-out: MIC EC 24 h
[36] = 48 h incubation, read-out: MIC EC 48 h

SMILES	MIC [1, 15] [µM]	MIC [1, 16] [µM]	MIC [1, 17] [µM]	MIC KP-E 24 h [2] [µM]	MIC KP-E 48 h [2] [µM]	MIC [3, 18] [µM]	MIC [3, 19] [µM]	MIC [4, 20] [µM]	MIC [4, 21] [µM]	MIC [5, 22] [µM]	MIC [5, 23] [µM]	MIC ([6]; 72 h, read-out: MIC TI 72 h) [µM]	MIC ([6]; 120 h, read-out: MIC TI 120 h) [µM]	MIC [7, 24] [µM]	MIC [7, 25] [µM]	MIC (Candida glabrata 20/I; 24 h, read-out: MIC CG 24 h) [µM]	MIC (Candida glabrata 20/I; 48 h, read-out: MIC CG 48 h) [µM]	MIC [8, 26] [µM]	MIC [8, 27] [µM]	MIC [9, 28] [µM]	also measured
O=C(O)c1ccc(N=Cc2cccc(Cl)c2O)cc1 [1m, 4-[(3-Chloro-2-hydroxybenzylidene)amino]benzoic acid]	250 (≈ 68.9 µg/mL)	500 (≈ 138 µg/mL)	500 (≈ 138 µg/mL)	>500	>500	31.2 (≈ 8.62 µg/mL)	31.2 (≈ 8.62 µg/mL)	> 500	> 500	> 500	> 500	125 (≈ 34.5 µg/mL)	125 (≈ 34.5 µg/mL)	500 (≈ 138 µg/mL)	500 (≈ 138 µg/mL)	62.5 (≈ 17.2 µg/mL)	62.5 (≈ 17.2 µg/mL)	1000 (≈ 276 µg/mL)	1000 (≈ 276 µg/mL)	> 500	MIC ([7]; time not stated, read-out: MIC, S. epidermidis): ≥ 250 µM; MIC [9, 29]: > 500 µM; MIC [10, 30]: > 500 µM; MIC [10, 31]: > 500 µM; MIC ([11]; 24 h, read-out: MIC LC 24 h): 500 µM (≈ 138 µg/mL); MIC ([11]; 48 h, read-out: MIC LC 48 h): 500 µM (≈ 138 µg/mL); MIC [12, 32]: 500 µM (≈ 138 µg/mL); MIC [12, 33]: 500 µM (≈ 138 µg/mL); MIC [12, 34]: 500 µM (≈ 138 µg/mL); MIC ([13]; 24 h, read-out: MIC AF 24 h): 250 µM (≈ 68.9 µg/mL); MIC ([13]; 48 h, read-out: MIC AF 48 h): 250 µM (≈ 68.9 µg/mL); MIC [14, 35]: > 500 µM; MIC [14, 36]: > 500 µM; IC50 (HepG2 cells): 247 µM
O=C(O)c1ccc(N=Cc2cc(Cl)cc(Cl)c2O)cc1 [1n, 4-[(3,5-Dichloro-2-hydroxybenzylidene)amino]benzoic acid]	250 (≈ 77.5 µg/mL)	500 (≈ 155 µg/mL)	500 (≈ 155 µg/mL)	>500	>500	125 (≈ 38.8 µg/mL)	125 (≈ 38.8 µg/mL)	250 (≈ 77.5 µg/mL)	250 (≈ 77.5 µg/mL)	> 500	> 500	250 (≈ 77.5 µg/mL)	250 (≈ 77.5 µg/mL)	250 (≈ 77.5 µg/mL)	250 (≈ 77.5 µg/mL)	125 (≈ 38.8 µg/mL)	125 (≈ 38.8 µg/mL)	1000 (≈ 310 µg/mL)	1000 (≈ 310 µg/mL)	125 (≈ 38.8 µg/mL)	MIC [9, 29]: 125 µM (≈ 38.8 µg/mL); MIC [10, 30]: > 500 µM; MIC [10, 31]: > 500 µM; MIC ([11]; 24 h, read-out: MIC LC 24 h): 500 µM (≈ 155 µg/mL); MIC ([11]; 48 h, read-out: MIC LC 48 h): 500 µM (≈ 155 µg/mL); MIC [12, 32]: 500 µM (≈ 155 µg/mL); MIC [12, 33]: 500 µM (≈ 155 µg/mL); MIC [12, 34]: 500 µM (≈ 155 µg/mL); MIC ([13]; 24 h, read-out: MIC AF 24 h): 500 µM (≈ 155 µg/mL); MIC ([13]; 48 h, read-out: MIC AF 48 h): 500 µM (≈ 155 µg/mL); MIC [14, 35]: > 500 µM; MIC [14, 36]: > 500 µM; IC50 (HepG2 cells): 98.7 µM
O=C(O)c1ccc(N=Cc2cc(Cl)cc(Br)c2O)cc1 [1o, 4-[(3-Bromo-5-chloro-2-hydroxybenzylidene)amino]benzoic acid]	500 (≈ 177 µg/mL)	500 (≈ 177 µg/mL)	500 (≈ 177 µg/mL)	500 (≈ 177 µg/mL)	500 (≈ 177 µg/mL)	31.2 (≈ 11.1 µg/mL)	31.2 (≈ 11.1 µg/mL)	31.2 (≈ 11.1 µg/mL)	31.2 (≈ 11.1 µg/mL)	> 500	> 500	62.5 (≈ 22.2 µg/mL)	62.5 (≈ 22.2 µg/mL)	15.6 (≈ 5.54 µg/mL)	31.2 (≈ 11.1 µg/mL)	15.6 (≈ 5.54 µg/mL)	15.6 (≈ 5.54 µg/mL)	500 (≈ 177 µg/mL)	500 (≈ 177 µg/mL)	15.6 (≈ 5.54 µg/mL)	MIC [9, 29]: 15.6 µM (≈ 5.54 µg/mL); MIC [10, 30]: 62.5 µM (≈ 22.2 µg/mL); MIC [10, 31]: 62.5 µM (≈ 22.2 µg/mL); MIC ([11]; 24 h, read-out: MIC LC 24 h): 500 µM (≈ 177 µg/mL); MIC ([11]; 48 h, read-out: MIC LC 48 h): 500 µM (≈ 177 µg/mL); MIC [12, 32]: 250 µM (≈ 88.6 µg/mL); MIC [12, 33]: 500 µM (≈ 177 µg/mL); MIC [12, 34]: 500 µM (≈ 177 µg/mL); MIC ([13]; 24 h, read-out: MIC AF 24 h): 250 µM (≈ 88.6 µg/mL); MIC ([13]; 48 h, read-out: MIC AF 48 h): 250 µM (≈ 88.6 µg/mL); MIC [14, 35]: 500 µM (≈ 177 µg/mL); MIC [14, 36]: 500 µM (≈ 177 µg/mL); IC50 (HepG2 cells): 85.7 µM
